Test results: patent publication US5504085A, “Triazolo quinoxalines and their preparation and use” (Novo Nordisk A/S, priority 1991, dated 1996)
≈ marks a conversion by molar mass, not a printed value.

Experiments:
[1] = molecular target: AMPA receptors (rat cerebral cortical membrane homogenate); assay: 3H-AMPA binding (Test 1): displacement of 3H-AMPA from AMPA type receptors; details: 5 nM 3H-AMPA, 0° C., 30 min, pH 7.1
Description: The affinity of a substance for one or more of the different types of excitatory amino acid receptors may be studied in simple binding experiments. In essense, the method involves incubation of a particular selected radiolabelled ligand and the particular specific substance to be investigated with brain homogenate which contains the receptor. Measurement of receptor occupancy is made by determination of the radioactivity bound to the homogenate and subtraction of nonspecific binding.
AMPA receptor binding may be studied by using ^3 H-AMPA as radioligand.
The pharmacological properties of the compounds of the present invention can be illustrated by determining their capability for displacing radioactively labelled 2-amino-3-hydroxy-5-methyl-4-isoxazolepropionic acid (AMPA) from the AMPA type receptors. […]
500 μl of thawed rat cerebral cortical membrane homogenate in Tris-HCl (30 mM), CaCI2 (2.5 mM) and KSCN (100 mM) pH 7.1 were incubated at 0° C. for 30 min. with 25 μl ^3 H-AMPA (5 nM final concentration) and the test compound and buffer. Non specific binding was determined by incubation with L-glutamic acid ([…] final concentration). […] Bound radioactivity was measured by scintillation counting. IC50 was determined by Hill analysis of at least four concentrations of test compound.

[2] = tested on: quisqualic acid stimulated spreading depression in chicken retina; assay: Spreading depression (Test 2): inhibition of quisqualic acid stimulated spreading depression in chicken retina; assay type: cell-based; details: Gallus gallus, 0.25 h, quisqualate 1 μg/ml, 26° C., 15 min incubation with test compound, read-out: TEST 2 IC50 (50% maximal inhibition of quisqualic acid stimulated spreading depression)
Text: The influence of glutamic add analogues on secondary effects of glutamate receptor interactions may be studied in vitro by using the phenomenon of spreading depression in chicken retina. Such experiments will provide information as to the efficades (agonist/antagonist) of the test substances. This is in contrast to binding studies, which only provide information on the affinities of the compounds for the receptor.
The pharmacological properties of the compounds of the present invention can be illustrated by determining their capability for displacing radioactively labelled 2-amino-3-hydroxy-5-methyl-4-isoxazolepropionic acid (AMPA) from the AMPA type receptors.
The antagonism is measured by determining the IC50 value which represents the concentration which produces a ,50% maximal inhibition of quisqualic acid stimulated spreading depression in chicken retina.
Spreading depression (Test 2) […]
The eyes are initially incubated in normal P.S.S. for 15-30 min. and then transferred to P.S.S. containing quisqualate (1μ g/ml). […] The time taken for an S.D. to start in each eye is measured.
After a further 15 min. of incubation in normal P.S.S. the eyes are transferred to normal P.S.S. containing the test compound and incubated for 15 min. […] The time taken for an S.D. to start in each eye is again measured. […]

| SMILES | TEST 1 IC50 (displacement of 50% of the specific binding of 3H-AMPA) [1] [µg/mL] | IC50 [2] [µg/mL] |
| --- | --- | --- |
| O=c1[nH]c2cc(C(F)(F)F)ccc2n2c(=O)[nH]nc12 [Example 3, 7-Trifluoromethyl 1,2, 4!triazolo 4,3-a!quinoxaline-1,4(2H,5H)-dione] | 1.3 | 1.3 (≈ 4.81 µM) |
| N#Cc1ccc2c(c1)[nH]c(=O)c1n[nH]c(=O)n12 [Example 4, 7-Cyano 1,2,4!triazolo 4,3-a!quinoxaline-1,4(2H, 5H)-dione] | 0.09 | 0.47 (≈ 2.07 µM) |
